# Measured values published in paper PMC11513893, “Discovery of Oral Degraders of the ROS1 Fusion Protein with Potent Activity against Secondary Resistance Mutations” (Journal of Medicinal Chemistry, 2024).
# What was measured:
# [1] = test system: Ba/F3 ROS1-G2032R; assay: Antiproliferation assay; assay type: cell-based, mouse; conditions: Mus musculus, BaF3; Ba/F3 cells, cell growth inhibition, 72 h
# Description: (§1) To assess targeted degradation of ROS1 fusion proteins, we first established a mouse pro-B cell line Ba/F3 as a model expressing the CD74-ROS1 oncogene or CD74-ROS1 with clinically observed secondary/tertiary mutations. The Ba/F3 cell line is dependent on interleukin-3 for survival and proliferation. Upon transduction of oncogenic ROS1, Ba/F3 cells become independent of interleukin-3 but dependent on the transduced driver gene.
# (§2) Ba/F3 immortalized murine bone marrow–derived pro-B cells were obtained from Creative Biogene (Shirley, NY) and cultured in RPMI supplemented with 10% FBS and IL3 (0.5 ng/mL). Ba/F3 cells expressing ROS1 variants were maintained in RPMI supplemented with 10% FBS and puromycin (0.7 mg/mL). […] Each compound was dissolved in DMSO and serially diluted in RPMI for cell culture experiments.
# (§3) To assess the 72 h effect of drug treatment on cell proliferation, 2000 to 3000 cells were plated in replicates of three in 96-well plates. The plates were placed in an incubator at 37 °C, 5% CO2 for 72 h. Following drug treatments, the cells were incubated with the Alamar Blue Assay reagent (BioRad), 5 μL each well for 4 h at 37 °C and 5% CO2. Luminescence was measured on a multiplate reader and analyzed. […] IC50 values were determined using a nonlinear regression model with a sigmoidal dose response in GraphPad. The data were collected based on triplicate experiments, and presented as mean ± SD.
# (§4) The resulting virus was used to infect Ba/F3 cells. After retroviral infection, Ba/F3 cells were selected by incubation with puromycin (0.7 mg/mL) for 2 weeks. For Ba/F3 cells infected by the CD74–ROS1 variants, IL3 was withdrawn from the culture medium at least 2 weeks before the experiments.
# [2] = test system: Ba/F3 CD74-ROS1 non mutant; assay: Antiproliferation assay (Alamar Blue, 72 h); assay type: cell-based, mouse; conditions: Mus musculus, BaF3, 72 h, Ba/F3 cells, cell growth inhibition
# Description: as §1, §2, §3, §4
# [3] = test system: ROS1; assay: ROS1 degradation in Ba/F3 cells (WES immunoblotting); assay type: cell-based; conditions: for DC50: concentration needed to reduce ROS1 protein by 50%, Ba/F3 cells; for Dmax (%) (ROS1): maximal degradation of ROS1 in Ba/F3 cells
# Procedure: Protein levels were analyzed using a WES instrument according to the WES User Guide from ProteinSimple in duplicate experiments. The samples were mixed with the fluorescent 5 master mix (ProteinSimple) and then heated at 95 °C for 5 min. Boiled samples, biotinylated protein ladder, antibody diluent, Streptavidin-HRP, primary antibodies, ProteinSimple horseradish peroxidase conjugated antirabbit or antimouse secondary antibodies, luminol-peroxide, and wash buffer were loaded into the WES plate (Wes 12–230 kDa Prefilled Plates with Split Buffer, ProteinSimple). The plates and capillary cartridges were loaded into the WES instrument, and protein separation, antibody incubation, and imaging were performed according to manufacturer’s instructions. Compass software (ProteinSimple) was used to acquire the data and to generate the virtual blot image reconstruction and chemiluminescence signal intensity electropherograms. […] Protein levels are expressed as the AUC of the peak chemiluminescence intensity. Antibodies against phospho-ROS1(Tyr2274/2334) (E8F5J), ROS1 (D4D6(R)) were obtained from Cell Signaling Technology.
Structure (SMILES),IC50 [1] [nM],IC50 [2] [nM],DC50 [3] [nM],Dmax (%) (ROS1) [3]
"Cc1cc(Nc2ncc(Cl)c(Nc3ccccc3S(=O)(=O)C(C)C)n2)c(OC(C)C)cc1C1CCN(C2CCN(CCNc3ccc4c(c3)C(=O)N(C3CCC(=O)NC3=O)C4=O)CC2)CC1 (centres unmarked) [8k, 5-((2-(4-(4-((5-Chloro-4-((2-(isopropylsulfonyl)phenyl)amino)pyrimidin-2-yl)amino)-5-isopropoxy-2-methylphenyl)-[1,4′-bipiperidin]-1′-yl)ethyl)amino)-2-(2,6-dioxopiperidin-3-yl)isoindoline-1,3-dione]",8590 ± 1180,171 ± 26,204,89
"Cc1cc(Nc2ncc(Cl)c(Nc3ccccc3S(=O)(=O)C(C)C)n2)c(OC(C)C)cc1C1CCN(C2CCN(CCCNc3ccc4c(c3)C(=O)N(C3CCC(=O)NC3=O)C4=O)CC2)CC1 (centres unmarked) [8l, 5-((3-(4-(4-((5-Chloro-4-((2-(isopropylsulfonyl)phenyl)amino)pyrimidin-2-yl)amino)-5-isopropoxy-2-methylphenyl)-[1,4′-bipiperidin]-1′-yl)propyl)amino)-2-(2,6-dioxopiperidin-3-yl)isoindoline-1,3-dione]",> 10000,598 ± 147,452,54
"Cc1cc(Nc2ncc(Cl)c(Nc3ccccc3S(=O)(=O)C(C)C)n2)c(OC(C)C)cc1C1CCN(C2CCN(C3CN(c4ccc5c(c4)C(=O)N(C4CCC(=O)NC4=O)C5=O)C3)CC2)CC1 (centres unmarked) [8m, 5-(3-(4-(4-((5-Chloro-4-((2-(isopropylsulfonyl)phenyl)amino)pyrimidin-2-yl)amino)-5-isopropoxy-2-methylphenyl)-[1,4′-bipiperidin]-1′-yl)azetidin-1-yl)-2-(2,6-dioxopiperidin-3-yl)isoindoline-1,3-dione]",2770 ± 1080,39 ± 34,35,92
"Cc1cc(Nc2ncc(Cl)c(Nc3ccccc3S(=O)(=O)C(C)C)n2)c(OC(C)C)cc1C1CCN(C2CCN(CC3CN(c4ccc5c(c4)C(=O)N(C4CCC(=O)NC4=O)C5=O)C3)CC2)CC1 (centres unmarked) [8n, 5-(3-((4-(4-((5-Chloro-4-((2-(isopropylsulfonyl)phenyl)amino)pyrimidin-2-yl)amino)-5-isopropoxy-2-methylphenyl)-[1,4′-bipiperidin]-1′-yl)methyl)azetidin-1-yl)-2-(2,6-dioxopiperidin-3-yl)isoindoline-1,3-dione]",1150 ± 466,713 ± 84,586,63
"Cc1cc(Nc2ncc(Cl)c(Nc3ccccc3S(=O)(=O)C(C)C)n2)c(OC(C)C)cc1C1CCN(C2CN(C3CN(c4ccc5c(c4)C(=O)N(C4CCC(=O)NC4=O)C5=O)C3)C2)CC1 (centres unmarked) [8o, 5-(3-(4-(4-((5-Chloro-4-((2-(isopropylsulfonyl)phenyl)amino)pyrimidin-2-yl)amino)-5-isopropoxy-2-methylphenyl)piperidin-1-yl)-[1,3′-biazetidin]-1′-yl)-2-(2,6-dioxopiperidin-3-yl)isoindoline-1,3-dione]",> 10000,116 ± 21,122,65
"Cc1cc(Nc2ncc(Cl)c(Nc3ccccc3S(=O)(=O)C(C)C)n2)c(OC(C)C)cc1C1CCN(C2CN(CC3CN(c4ccc5c(c4)C(=O)N(C4CCC(=O)NC4=O)C5=O)C3)C2)CC1 (centres unmarked) [8q, 5-(3-((3-(4-(4-((5-Chloro-4-((2-(isopropylsulfonyl)phenyl)amino)pyrimidin-2-yl)amino)-5-isopropoxy-2-methylphenyl)piperidin-1-yl)azetidin-1-yl)methyl)azetidin-1-yl)-2-(2,6-dioxopiperidin-3-yl)isoindoline-1,3-dione]",6120 ± 4070,66 ± 6,57,85
"Cc1cc(Nc2ncc(Cl)c(Nc3ccccc3S(=O)(=O)C(C)C)n2)c(OC(C)C)cc1C1CCN(C2CN(CC3CCN(c4ccc5c(c4)C(=O)N(C4CCC(=O)NC4=O)C5=O)CC3)C2)CC1 (centres unmarked) [8r, 5-(4-((3-(4-(4-((5-Chloro-4-((2-(isopropylsulfonyl)phenyl)amino)pyrimidin-2-yl)amino)-5-isopropoxy-2-methylphenyl)piperidin-1-yl)azetidin-1-yl)methyl)piperidin-1-yl)-2-(2,6-dioxopiperidin-3-yl)isoindoline-1,3-dione]",> 10000,72 ± 3,77,91
"Cc1cc(Nc2ncc(Cl)c(Nc3ccccc3S(=O)(=O)C(C)C)n2)c(OC(C)C)cc1C1CCN(C2CCN(C3CCN(c4ccc5c(c4)C(=O)N(C4CCC(=O)NC4=O)C5=O)CC3)CC2)CC1 (centres unmarked) [8s, 5-(4-(4-((5-Chloro-4-((2-(isopropylsulfonyl)phenyl)amino)pyrimidin-2-yl)amino)-5-isopropoxy-2-methylphenyl)-[1,4′:1′,4″-terpiperidin]-1″-yl)-2-(2,6-dioxopiperidin-3-yl)isoindoline-1,3-dione]",> 10000,106 ± 9,120,82
"Cc1cc(Nc2ncc(Cl)c(Nc3ccccc3S(=O)(=O)C(C)C)n2)c(OC(C)C)cc1C1CCN(C2CCN(CC3CCN(c4ccc5c(c4)C(=O)N(C4CCC(=O)NC4=O)C5=O)CC3)CC2)CC1 (centres unmarked) [8t, 5-(4-((4-(4-((5-Chloro-4-((2-(isopropylsulfonyl)phenyl)amino)pyrimidin-2-yl)amino)-5-isopropoxy-2-methylphenyl)-[1,4′-bipiperidin]-1′-yl)methyl)piperidin-1-yl)-2-(2,6-dioxopiperidin-3-yl)isoindoline-1,3-dione]",> 10000,147 ± 28,155,81
"COc1cc(N2CCN(c3ccc4c(c3)C(=O)N(C3CCC(=O)NC3=O)C4=O)CC2)ccc1Nc1ncc(Cl)c(Nc2ccccc2P(C)(C)=O)n1 (centres unmarked) [9a, 5-(4-(4-((5-Chloro-4-((2-(dimethylphosphoryl)phenyl)amino)pyrimidin-2-yl)amino)-3-methoxyphenyl)piperazin-1-yl)-2-(2,6-dioxopiperidin-3-yl)isoindoline-1,3-dione]",251 ± 125,112 ± 17,133,68
"COc1cc(N2CCC(N3CCN(C4CN(c5ccc6c(c5)C(=O)N(C5CCC(=O)NC5=O)C6=O)C4)CC3)CC2)ccc1Nc1ncc(Cl)c(Nc2ccccc2P(C)(C)=O)n1 (centres unmarked) [9d, 5-(3-(4-(1-(4-((5-Chloro-4-((2-(dimethylphosphoryl)phenyl)amino)pyrimidin-2-yl)amino)-3-methoxyphenyl)piperidin-4-yl)piperazin-1-yl)azetidin-1-yl)-2-(2,6-dioxopiperidin-3-yl)isoindoline-1,3-dione]",491 ± 48,61 ± 5,75,90
"COc1cc(C2CCN(C3CCN(CC4CCN(c5ccc6c(c5)C(=O)N(C5CCC(=O)NC5=O)C6=O)CC4)CC3)CC2)ccc1Nc1ncc(Cl)c(Nc2ccccc2P(C)(C)=O)n1 (centres unmarked) [9g, 5-(4-((4-(4-((5-Chloro-4-((2-(dimethylphosphoryl)phenyl)amino)pyrimidin-2-yl)amino)-3-methoxyphenyl)-[1,4′-bipiperidin]-1′-yl)methyl)piperidin-1-yl)-2-(2,6-dioxopiperidin-3-yl)isoindoline-1,3-dione]",221 ± 26,7.1 ± 0.9,11,88
"COc1cc(N2CCN(C3CCN(CC4CCN(c5ccc6c(c5)C(=O)N(C5CCC(=O)NC5=O)C6=O)CC4)CC3)CC2)ccc1Nc1ncc(Cl)c(Nc2ccccc2P(C)(C)=O)n1 (centres unmarked) [9h, 5-(4-((4-(4-(4-((5-Chloro-4-((2-(dimethylphosphoryl)phenyl)amino)pyrimidin-2-yl)amino)-3-methoxyphenyl)piperazin-1-yl)piperidin-1-yl)methyl)piperidin-1-yl)-2-(2,6-dioxopiperidin-3-yl)isoindoline-1,3-dione]",115 ± 12,21 ± 8,34,85
"COc1cc(N2CCN(c3ccc4c(c3)CN(C3CCC(=O)NC3=O)C4=O)CC2)ccc1Nc1ncc(Cl)c(Nc2ccccc2P(C)(C)=O)n1 (centres unmarked) [9l, 3-(5-(4-(4-((5-Chloro-4-((2-(dimethylphosphoryl)phenyl)amino)pyrimidin-2-yl)amino)-3-methoxyphenyl)piperazin-1-yl)-1-oxoisoindolin-2-yl)piperidine-2,6-dione]",427 ± 32,6.6 ± 0.4,8,92
